Results on 16 compounds are retold here after patent publication US20080261994A1, “CYCLOPROPANE COMPOUNDS AND PHARMACEUTICAL USE THEREOF” (Japan Tobacco Inc., priority 2003, published 2008).

What all share (type): biochemical
One test deals with T1, aggrecanase-1 (Homo sapiens, UniProt O75173).
T1 sequence (O75173 213-837): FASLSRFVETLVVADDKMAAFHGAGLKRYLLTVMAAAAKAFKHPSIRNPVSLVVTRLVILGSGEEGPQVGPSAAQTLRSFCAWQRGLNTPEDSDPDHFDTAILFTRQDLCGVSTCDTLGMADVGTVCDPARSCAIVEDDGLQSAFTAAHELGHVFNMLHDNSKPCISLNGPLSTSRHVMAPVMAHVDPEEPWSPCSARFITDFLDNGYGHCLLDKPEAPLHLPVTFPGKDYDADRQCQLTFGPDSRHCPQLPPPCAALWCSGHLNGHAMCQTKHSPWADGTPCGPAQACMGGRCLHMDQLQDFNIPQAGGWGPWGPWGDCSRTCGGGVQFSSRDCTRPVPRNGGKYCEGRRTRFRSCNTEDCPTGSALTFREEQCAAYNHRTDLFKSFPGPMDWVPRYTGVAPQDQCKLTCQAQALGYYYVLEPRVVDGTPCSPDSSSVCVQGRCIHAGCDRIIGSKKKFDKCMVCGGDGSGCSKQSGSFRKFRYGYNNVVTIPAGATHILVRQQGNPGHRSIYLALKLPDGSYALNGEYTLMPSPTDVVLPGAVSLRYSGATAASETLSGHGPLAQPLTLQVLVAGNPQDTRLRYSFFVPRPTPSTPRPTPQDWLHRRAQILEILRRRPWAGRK
Description: Aggrecanase-1 inhibitory action (Particle Assay, GAG release from aggrecan-containing polyacrylamide particles). In outline:
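Enzyme and compound incubated with aggrecan-containing polyacrylamide particles in Tris-HCl buffer at 37° C for 15 h. Released GAG in supernatant measured with 1,9-dimethylmethylene blue at 595 nm against chondroitin sulfate standard; % inhibition from enzyme-free and inhibitor-free wells, reported as TC50 (μM).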

The target of a further test is T2, MMP-1 (Homo sapiens, UniProt P03956).
T2 sequence (P03956 100-469): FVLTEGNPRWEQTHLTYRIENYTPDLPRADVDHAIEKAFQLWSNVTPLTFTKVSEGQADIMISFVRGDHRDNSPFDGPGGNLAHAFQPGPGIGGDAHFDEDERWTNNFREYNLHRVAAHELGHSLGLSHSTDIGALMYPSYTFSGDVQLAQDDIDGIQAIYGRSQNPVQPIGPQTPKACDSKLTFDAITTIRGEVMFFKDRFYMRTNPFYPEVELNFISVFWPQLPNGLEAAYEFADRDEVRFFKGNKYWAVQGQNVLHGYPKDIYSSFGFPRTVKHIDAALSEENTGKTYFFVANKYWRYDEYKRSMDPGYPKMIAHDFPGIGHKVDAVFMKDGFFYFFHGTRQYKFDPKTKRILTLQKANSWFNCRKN
The test is described as follows: MMP-1 inhibitory action (Type I collagen Activity Measurement kit, FITC-labeled collagen type I).

The target of the next test is T3, Recombinant Human MMP-13 (Homo sapiens, UniProt P45452).
T3 construct: purchased R&D systems 511-MM
Description: MMP-13 inhibitory activity (MMP-13 specific fluorescent substrate with quencher). The method in brief: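 Recombinant human MMP-13 with test compound, reaction started with quenched fluorogenic peptide 7-MCA-Pro-CHA-Gly-NVal-His-Ala-DPA in Tris-HCl buffer, 1 h at 25 °C, stopped with acetic acid. Fluorescence at Ex 325/Em 405 nm; % inhibition versus enzyme-free and inhibitor-free wells, reported as IC50 (μM).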

[1] abbreviates: Experimental Example 1, read-out: IC50 AG1.
The mark [2] stands for this setting: Experimental Example 2, read-out: IC50 MMP1.
Where [3] appears, read: Experimental Example 3, read-out: IC50 MMP13.
The mark [4] stands for this setting: aggrecanase-1 inhibitory action, read-out: IC50 AG1 (Experimental Example 1).
The mark [5] stands for this setting: MMP-1 inhibitory action, FITC-labeled collagen type I, 37° C. for 3 hr, read-out: IC50 MMP1 (Experimental Example 2).
The mark [6] stands for this setting: Recombinant Human MMP-13, fluorescent substrate, 25° C. for 1 h, read-out: IC50 MMP13 (Experimental Example 3).

Each structure is given as a SMILES string. Where two headings read alike, the source gives them in different places. Bounds are passed on as bounds.

A word on the IC50: it is the midpoint of a concentration-inhibition curve.

For `CC1C(c2ccccc2)C1(NS(=O)(=O)c1ccc(-c2cccc(O)c2)s1)C(=O)O` (stereo not drawn) [Example 2-509], the results for the IC50 at aggrecanase-1 (setting [1]), at MMP-1 (setting [2]) and at Recombinant Human MMP-13 (setting [3]) were below 1 µM, at least 1 µM and below 0.1 µM, respectively.

`O=C(O)C1(CS(=O)(=O)c2ccc(-c3ccc(Cl)cc3)s2)CC1c1ccccc1` (stereo not drawn) [Example 2-187]: the IC50 at aggrecanase-1 (setting [4]), at MMP-1 (setting [5]) and at Recombinant Human MMP-13 (setting [6]) was at least 10 µM each time.

For the compound `O=C(CCc1ccccc1C1CC1(NS(=O)(=O)c1ccc(-c2cc(C(F)(F)F)on2)s1)C(=O)O)N1CCOCC1` (stereo not drawn) [Example 2-230], the IC50 was below 1 µM at aggrecanase-1 (setting [4]), at least 10 µM on MMP-1 (setting [5]) and below 0.1 µM at Recombinant Human MMP-13 (setting [6]).

Consider `C[C@]1(c2ccccc2)C[C@@]1(NS(=O)(=O)c1ccc(-c2ccc(Cl)cc2F)s1)C(=O)O` [Example 2-406], for which the values for the IC50 at aggrecanase-1 (setting [1]), at MMP-1 (setting [2]) and on Recombinant Human MMP-13 (setting [3]) were below 0.1 µM, below 1 µM and below 0.1 µM, respectively.

In the case of `O=C(Cc1cccc(C2CC2(NS(=O)(=O)c2ccc(-c3cc(C(F)(F)F)on3)s2)C(=O)O)c1)N1CCOCC1` (stereo not drawn) [Example 2-220], the IC50 was below 0.1 µM on aggrecanase-1 (setting [4]), at least 1 µM at MMP-1 (setting [5]) and below 0.1 µM on Recombinant Human MMP-13 (setting [6]).

Regarding `O=C(O)C1(NS(=O)(=O)c2ccc(-c3ccc(Cl)cc3)s2)CC1c1ccccc1Oc1cccnc1` (stereo not drawn) [Example 2-24], the IC50 at aggrecanase-1 (setting [4]) was below 1 µM; on MMP-1 (setting [5]) it was at least 10 µM; on Recombinant Human MMP-13 (setting [6]), below 1 µM.

On to `CC(C)NCC1(c2ccccc2)CC1(NS(=O)(=O)c1ccc(-c2ccc(Cl)cc2)s1)C(=O)O` (stereo not drawn) [Example 2-392], for which the IC50 at aggrecanase-1 (setting [1]) was at least 1 µM; at MMP-1 (setting [2]), at least 10 µM; on Recombinant Human MMP-13 (setting [3]), at least 1 µM.

With `O=C(O)[C@]1(NS(=O)(=O)c2ccc(-c3ccc(Cl)cc3)s2)C[C@@H]1c1cccc([N+](=O)[O-])c1` [Example 2-170], the IC50 on aggrecanase-1 (setting [4]) was below 0.1 µM; at MMP-1 (setting [5]), at least 10 µM; at Recombinant Human MMP-13 (setting [6]), below 0.1 µM.

Regarding `O=C(NO)[C@]1(NS(=O)(=O)c2ccc(OCc3ccc(Cl)cc3Cl)cc2)[C@@H]2c3ccccc3C[C@@H]21` (relative stereo) [Example 2-13, (1R*,1aS*,6aS*)-1-[4-(2,4-dichloro-benzyloxy)-benzenesulfonylamino]-1,1a,6,6a-tetrahydro-cyclopropa[a]inden-1-carboxylic acid hydroxyamide], the IC50 on aggrecanase-1 (setting [4]) is below 0.1 µM; at MMP-1 (setting [5]) it was at least 10 µM; at Recombinant Human MMP-13 (setting [6]), below 0.1 µM.

Regarding `O=C(O)C1(NS(=O)(=O)c2ccc(Cl)s2)CC1c1ccccc1` (stereo not drawn) [Example 2-82], the IC50 on aggrecanase-1 (setting [4]), at MMP-1 (setting [5]) and at Recombinant Human MMP-13 (setting [6]) was at least 10 µM in each case.

With `O=C(O)[C@]1(NS(=O)(=O)/C=C/c2ccc(Cl)cc2)C[C@@H]1c1ccccc1` [Example 2-151], the IC50 on aggrecanase-1 (setting [4]) was at least 10 µM; on MMP-1 (setting [5]) it was at least 10 µM; on Recombinant Human MMP-13 (setting [6]), at least 1 µM.

With `Cc1nc(-c2ccc(S(=O)(=O)N[C@@]3(C(=O)O)C(C)[C@@H]3c3ccccc3)s2)no1` (stereo partly drawn) [Example 2-451], the IC50 on aggrecanase-1 (setting [1]) was at least 1 µM; on MMP-1 (setting [2]), at least 10 µM; on Recombinant Human MMP-13 (setting [3]), at least 1 µM.

As to `O=C(O)[C@@]1(NS(=O)(=O)c2ccc(-c3ccc(Cl)cc3)s2)C[C@H]1c1cccc(Br)c1` [Example 2-150], the IC50 is below 1 µM on aggrecanase-1 (setting [4]), at least 1 µM at MMP-1 (setting [5]) and below 1 µM on Recombinant Human MMP-13 (setting [6]).

`CN1CCN(Cc2cccc(C3CC3(NS(=O)(=O)c3ccc(-c4ccc(Cl)cc4)s3)C(=O)O)c2)CC1` (stereo not drawn) [Example 1-103]: the IC50 is below 1 µM on aggrecanase-1 (setting [4]), at least 10 µM at MMP-1 (setting [5]) and below 1 µM on Recombinant Human MMP-13 (setting [6]).

Regarding `COC(=O)c1ccccc1C1CC1(NS(=O)(=O)c1ccc(-c2ccc(Cl)cc2)s1)C(=O)O` (stereo not drawn) [Example 2-205], the IC50 at aggrecanase-1 (setting [4]) was below 0.1 µM; on MMP-1 (setting [5]), at least 10 µM; on Recombinant Human MMP-13 (setting [6]) it was below 1 µM.

Regarding `C[C@]1(c2ccccc2)C[C@@]1(NS(=O)(=O)c1ccc2c(c1)Cc1cc(Cl)ccc1-2)C(=O)O` [Example 2-568], the half-inhibitory concentration (IC50) at aggrecanase-1 (setting [1]) was below 0.1 µM; on MMP-1 (setting [2]), below 1 µM; on Recombinant Human MMP-13 (setting [3]) it was below 0.1 µM.
